Measurements as given in ChEMBL document CHEMBL1201862, “PubChem BioAssay data set” (2004).
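Following 48 hours of exposure in 96-well plates, responses at five concentrations were used to interpolate endpoints linearly. GI50: concentration for 50% inhibition of growth.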 Active and inactive are the calls of the source. Cut-off read from the data, not from the text of the source: active = GI50 up to about 1.1 µM and inactive = higher.

What was measured:
Experiment in all cases: growth of human tumour cells (NCI), 48 h
[1] = test system: CAKI-1
[2] = test system: DU-145
[3] = test system: EKVX
[4] = test system: HL-60
[5] = test system: HOP-62
[6] = test system: KM12
[7] = test system: LOX IMVI
[8] = test system: MDA-N
[9] = test system: MOLT-4
[10] = test system: NCI/ADR-RES
[11] = test system: OVCAR-4
[12] = test system: OVCAR-5
[13] = test system: OVCAR-8
[14] = test system: RPMI-8226
[15] = test system: SK-MEL-28
[16] = test system: SK-MEL-2
[17] = test system: SN12C
[18] = test system: SR
[19] = test system: RXF 393
[20] = test system: NCI-H226

Measured: GI50

O=C1Nc2ccccc2/C1=N/NC(=S)Nc1ccc([N+](=O)[O-])cc1
inactive: [1] 6.07 µM | [2] 14.8 µM | [3] 12.3 µM | [4] > 100 µM | [5] 4.62 µM | [6] 10.8 µM | [7] 2.94 µM | [8] 11.4 µM | [9] 2.28 µM | [10] 3.01 µM | [11] 18.6 µM | [12] 22.9 µM | [13] 1.77 µM | [14] 13.5 µM | [15] 14.2 µM | [16] 4.25 µM | [17] 16.9 µM | [18] 4.72 µM

COc1ccc(-n2c(CCCC(=O)O)nc3c2C(=O)c2ccccc2C3=O)cc1
inactive: [1] > 100 µM | [2] 92 µM | [3] 60.7 µM | [4] 31.1 µM | [6] 64.1 µM | [7] 54.8 µM | [8] 31.4 µM | [9] 68.1 µM | [10] > 100 µM | [11] 53.3 µM | [12] > 100 µM | [13] 51.3 µM | [14] 36.3 µM | [15] > 100 µM | [16] 84.7 µM | [17] 54.6 µM | [18] 66.8 µM

[O-][S+]1c2ccccc2SCSc2ccccc21
inactive: [1] > 100 µM | [2] > 100 µM | [5] > 100 µM | [6] > 100 µM | [8] > 100 µM | [9] 66.5 µM | [10] > 100 µM | [11] > 100 µM | [12] > 100 µM | [13] > 100 µM | [14] 18.2 µM | [19] > 100 µM | [16] > 100 µM | [17] > 100 µM | [18] 46.2 µM

NC(=O)/C=c1/c2ccccc2n2nc3ccccc3c12
inactive: [1] 20.1 µM | [2] 37.8 µM | [3] 14.4 µM | [4] 3.91 µM | [5] 26.1 µM | [6] 14.3 µM | [7] 4.78 µM | [8] 15.6 µM | [9] 2.69 µM | [10] 16.1 µM | [11] 10.3 µM | [12] 29.9 µM | [13] 8.71 µM | [14] 4.98 µM | [19] 17.1 µM | [15] 16.8 µM | [16] 15.6 µM | [17] 19.1 µM | [18] 2.68 µM

COc1ccc2c(c1)nc1n2C(N)=Nc2ccccc2S1
inactive: [1] > 100 µM | [2] 35.5 µM | [3] 28.5 µM | [4] 2.64 µM | [5] 53.1 µM | [6] 15.4 µM | [7] 11.8 µM | [8] 16.9 µM | [9] 3.69 µM | [20] 11.6 µM | [10] 35.2 µM | [11] 34.4 µM | [12] 36.6 µM | [13] 18.4 µM | [14] 8.73 µM | [19] 30 µM | [15] > 80.5 µM | [16] > 100 µM | [17] 44.6 µM

O=c1oc2c(Cl)cc(Cl)cc2cc1-c1cn2c(n1)sc1ccccc12
inactive: [1] 71.6 µM | [2] 74 µM | [3] 65.8 µM | [4] 23.9 µM | [5] 53.5 µM | [6] > 100 µM | [7] 60.3 µM | [8] 38.6 µM | [9] 20.4 µM | [10] > 100 µM | [11] 47.6 µM | [12] > 100 µM | [13] 87.1 µM | [14] 24.7 µM | [19] 31.2 µM | [15] > 100 µM | [16] > 100 µM | [17] 67.8 µM | [18] 21.1 µM

CN(CC(=O)O)c1ncc2c(n1)-c1ccccc1OC2
inactive: [1] > 100 µM | [2] > 100 µM | [3] > 100 µM | [4] > 100 µM | [6] > 100 µM | [7] > 100 µM | [8] > 100 µM | [9] > 100 µM | [10] > 100 µM | [11] > 100 µM | [12] > 100 µM | [13] > 100 µM | [14] > 100 µM | [19] > 100 µM | [15] > 100 µM | [16] > 100 µM | [17] > 100 µM | [18] > 100 µM

COC1CN(C)/C(=N\c2cccc3ccccc23)S1 (stereo not given)
inactive: [1] > 10 µM | [2] > 10 µM | [4] > 10 µM | [5] > 10 µM | [6] > 10 µM | [7] > 10 µM | [8] > 10 µM | [9] > 10 µM | [10] > 10 µM | [11] > 10 µM | [12] > 10 µM | [13] > 10 µM | [14] > 10 µM | [15] > 10 µM | [17] > 10 µM | [18] > 10 µM

Cc1ccc(Nc2nc(=O)c3c([nH]c4ccccc43)s2)cc1
inactive: [1] 8.55 µM | [2] 18.6 µM | [3] 27.8 µM | [4] 14.8 µM | [5] 10.2 µM | [6] 3.43 µM | [7] 13 µM | [8] 2.34 µM | [9] 21.7 µM | [10] 14.2 µM | [11] 18.1 µM | [13] 15.4 µM | [14] 4.21 µM | [15] 21.2 µM | [16] 14.2 µM | [17] 15 µM | [18] 4.68 µM

O=S(=O)(O)c1cc(S(=O)(=O)O)c2cc(/N=N/c3c(O)ccc4ccccc34)ccc2c1
inactive: [1] > 100 µM | [2] > 100 µM | [3] > 100 µM | [4] > 100 µM | [5] > 100 µM | [6] > 100 µM | [7] > 100 µM | [8] > 100 µM | [9] > 100 µM | [20] > 100 µM | [10] > 100 µM | [11] > 100 µM | [12] > 100 µM | [13] > 100 µM | [14] > 100 µM | [19] > 100 µM | [15] > 100 µM | [16] > 100 µM | [17] > 100 µM

CCCCCCOC(=O)/C=C/[C@]1(CO)C/C(=C/CC(C(C)C)C(C)C)C(=O)O1
inactive: [1] 10.9 µM | [2] 18.2 µM | [3] 1.28 µM | [4] 2.7 µM | [5] 8.41 µM | [6] 16 µM | [7] 10.6 µM | [8] 1.39 µM | [9] 1.58 µM | [20] 3.41 µM | [10] 13.9 µM | [11] 19.1 µM | [12] 11.6 µM | [13] 16.7 µM | [14] 15.7 µM | [19] 18.2 µM | [15] 10.4 µM | [16] 16.2 µM
